Experimental data as given in ChEMBL document CHEMBL3885861, “Open TG-GATES”.

Species: Rattus norvegicus
Assay: Open TG-GATES - Regimen: Single
Assay type: toxicity, organism-based, Sprague-Dawley
Set-up: regimen Single, gender Male, age 6 weeks
Conditions: in vivo, po, route gavage; for APTT / Bas / Eos / Fbg / Hb / Ht / Lym / MCH / MCHC / MCV / Mono / Neu / PT / Plat / RBC / Ret / WBC: tissue Blood; for KIDNEY_L / KIDNEY_R / KIDNEY_TOTAL: tissue Kidney; for LIVER: tissue Liver; for A/G / ALP / ALT / AST / BUN / CRE / Ca / Cl / DBIL / GLC / IP / K / LDH / Na / PL / RALB / TBIL / TC / TG / TP / gamma-GTP: tissue Plasma
[1] = 0 mg/kg, 3 h, dose level Control
[2] = 0 mg/kg, 6 h, dose level Control
[3] = 0 mg/kg, 9 h, dose level Control
[4] = 0 mg/kg, 24 h, dose level Control
[5] = 300 mg/kg, 24 h, dose level Low

## O=C(O)c1ccccc1Nc1ccccc1 [FENAMIC ACID]
[1]
  TERMINAL_BW: 209.2 g
  APTT: 16.5 s
  Bas: 0.4%
  Eos: 1%
  Fbg: 255.6 mg/dL
  Hb: 13.1 g/dL
  Ht: 39.6%
  Lym: 73.4%
  MCH: 20.8 pg
  MCHC: 33%
  MCV: 63.1 fL
  Mono: 2%
  Neu: 22.8%
  PT: 14 s
  Plat: 119.2 x10_4/uL
  RBC: 627.8 x10_4/ul
  Ret: 8.3%
  WBC: 95.4 x10_2/uL
  KIDNEY_L: 0.9 g
  KIDNEY_R: 0.9 g
  KIDNEY_TOTAL: 1.8 g
  LIVER: 8.8 g
  A/G: 0.9
  ALP: 1511 IU/L
  ALT: 33.2 IU/L
  AST: 75 IU/L
  BUN: 9.2 mg/dL
  CRE: 0.2 mg/dL
  Ca: 10.9 mg/dL
  Cl: 105.4 meq/L
  DBIL: 0.008 mg/dL
  GLC: 185.4 mg/dL
  IP: 9 mg/dL
  K: 4.2 meq/L
  LDH: 75.4 IU/L
  Na: 144 meq/L
  PL: 132 mg/dL
  RALB: 2.5 g/dL
  TBIL: 0.05 mg/dL
  TC: 69 mg/dL
  TG: 77.6 mg/dL
  TP: 5.4 g/dL
  gamma-GTP: 1 IU/L
[2]
  TERMINAL_BW: 204.2 g
  APTT: 18.5 s
  Bas: 0.4%
  Eos: 0.8%
  Fbg: 283.4 mg/dL
  Hb: 13.2 g/dL
  Ht: 39.8%
  Lym: 76.4%
  MCH: 20.7 pg
  MCHC: 33.1%
  MCV: 62.7 fL
  Mono: 2.8%
  Neu: 19.6%
  PT: 13.9 s
  Plat: 112.2 x10_4/uL
  RBC: 634.4 x10_4/ul
  Ret: 8.3%
  WBC: 84.7 x10_2/uL
  KIDNEY_L: 0.9 g
  KIDNEY_R: 0.9 g
  KIDNEY_TOTAL: 1.8 g
  LIVER: 8.2 g
  A/G: 0.9
  ALP: 1530.8 IU/L
  ALT: 35 IU/L
  AST: 77.4 IU/L
  BUN: 7.8 mg/dL
  CRE: 0.2 mg/dL
  Ca: 11.1 mg/dL
  Cl: 105 meq/L
  DBIL: 0.004 mg/dL
  GLC: 157.2 mg/dL
  IP: 9.1 mg/dL
  K: 4.1 meq/L
  LDH: 79.6 IU/L
  Na: 143 meq/L
  PL: 136.8 mg/dL
  RALB: 2.5 g/dL
  TBIL: 0.054 mg/dL
  TC: 75.6 mg/dL
  TG: 56.2 mg/dL
  TP: 5.4 g/dL
  gamma-GTP: 1.2 IU/L
[3]
  TERMINAL_BW: 204.4 g
  APTT: 18.2 s
  Bas: 0.6%
  Eos: 1%
  Fbg: 261.6 mg/dL
  Hb: 13.3 g/dL
  Ht: 40.4%
  Lym: 75.4%
  MCH: 20.5 pg
  MCHC: 33.1%
  MCV: 62.1 fL
  Mono: 1.8%
  Neu: 21.6%
  PT: 14.3 s
  Plat: 129.3 x10_4/uL
  RBC: 650.4 x10_4/ul
  Ret: 8.1%
  WBC: 69 x10_2/uL
  KIDNEY_L: 0.9 g
  KIDNEY_R: 0.9 g
  KIDNEY_TOTAL: 1.8 g
  LIVER: 7.9 g
  A/G: 0.9
  ALP: 1501.2 IU/L
  ALT: 35 IU/L
  AST: 77.6 IU/L
  BUN: 9.2 mg/dL
  CRE: 0.2 mg/dL
  Ca: 10.8 mg/dL
  Cl: 106 meq/L
  DBIL: 0 mg/dL
  GLC: 182.4 mg/dL
  IP: 9.6 mg/dL
  K: 3.9 meq/L
  LDH: 70 IU/L
  Na: 145 meq/L
  PL: 130.6 mg/dL
  RALB: 2.6 g/dL
  TBIL: 0.05 mg/dL
  TC: 72.8 mg/dL
  TG: 39 mg/dL
  TP: 5.5 g/dL
  gamma-GTP: 1.2 IU/L
[4]
  TERMINAL_BW: 218.8 g
  APTT: 16.2 s
  Bas: 0.8%
  Eos: 1%
  Fbg: 271 mg/dL
  Hb: 13.5 g/dL
  Ht: 40.9%
  Lym: 80.6%
  MCH: 20.9 pg
  MCHC: 33%
  MCV: 63.3 fL
  Mono: 2%
  Neu: 15.2%
  PT: 14.4 s
  Plat: 124.1 x10_4/uL
  RBC: 646.8 x10_4/ul
  Ret: 7%
  WBC: 111.8 x10_2/uL
  KIDNEY_L: 1 g
  KIDNEY_R: 1 g
  KIDNEY_TOTAL: 1.9 g
  LIVER: 9.7 g
  A/G: 0.9
  ALP: 1870.8 IU/L
  ALT: 44.4 IU/L
  AST: 73.8 IU/L
  BUN: 13.4 mg/dL
  CRE: 0.2 mg/dL
  Ca: 11.2 mg/dL
  Cl: 105.2 meq/L
  DBIL: 0.008 mg/dL
  GLC: 177.2 mg/dL
  IP: 7.8 mg/dL
  K: 4.2 meq/L
  LDH: 85.4 IU/L
  Na: 142.6 meq/L
  PL: 148.4 mg/dL
  RALB: 2.7 g/dL
  TBIL: 0.034 mg/dL
  TC: 77.6 mg/dL
  TG: 82.6 mg/dL
  TP: 5.6 g/dL
  gamma-GTP: 1 IU/L
300 mg/kg, 3 h, dose level Low
  TERMINAL_BW: 209.1 g
  APTT: 16.8 s
  Bas: 0.8%
  Eos: 0.8%
  Fbg: 249.8 mg/dL
  Hb: 13.2 g/dL
  Ht: 40%
  Lym: 79.8%
  MCH: 20.5 pg
  MCHC: 33%
  MCV: 62.3 fL
  Mono: 2.2%
  Neu: 16.2%
  PT: 14.3 s
  Plat: 113.6 x10_4/uL
  RBC: 642.2 x10_4/ul
  Ret: 8.8%
  WBC: 95.7 x10_2/uL
  KIDNEY_L: 1 g
  KIDNEY_R: 0.9 g
  KIDNEY_TOTAL: 1.9 g
  LIVER: 8.2 g
  A/G: 0.9
  ALP: 1661.4 IU/L
  ALT: 38.2 IU/L
  AST: 73.4 IU/L
  BUN: 12.4 mg/dL
  CRE: 0.2 mg/dL
  Ca: 11.1 mg/dL
  Cl: 107.2 meq/L
  GLC: 187.4 mg/dL
  IP: 9.6 mg/dL
  K: 4.4 meq/L
  LDH: 78.4 IU/L
  Na: 144.4 meq/L
  PL: 124.6 mg/dL
  RALB: 2.5 g/dL
  TC: 67.4 mg/dL
  TG: 93.4 mg/dL
  TP: 5.4 g/dL
  gamma-GTP: 1 IU/L
300 mg/kg, 6 h, dose level Low
  TERMINAL_BW: 201.5 g
  APTT: 16.7 s
  Bas: 0.6%
  Eos: 0.8%
  Fbg: 248.8 mg/dL
  Hb: 13.5 g/dL
  Ht: 40.6%
  Lym: 74.6%
  MCH: 20.9 pg
  MCHC: 33.3%
  MCV: 62.9 fL
  Mono: 2.4%
  Neu: 21.4%
  PT: 14.5 s
  Plat: 114.4 x10_4/uL
  RBC: 645.8 x10_4/ul
  Ret: 8%
  WBC: 96.1 x10_2/uL
  KIDNEY_L: 0.9 g
  KIDNEY_R: 0.9 g
  KIDNEY_TOTAL: 1.8 g
  LIVER: 7.3 g
  A/G: 0.9
  ALP: 1342.6 IU/L
  ALT: 38.4 IU/L
  AST: 73 IU/L
  BUN: 8.8 mg/dL
  CRE: 0.2 mg/dL
  Ca: 10.7 mg/dL
  Cl: 107.4 meq/L
  GLC: 152.8 mg/dL
  IP: 9.9 mg/dL
  K: 3.9 meq/L
  LDH: 66.6 IU/L
  Na: 144.2 meq/L
  PL: 116.8 mg/dL
  RALB: 2.5 g/dL
  TC: 58.6 mg/dL
  TG: 38.8 mg/dL
  TP: 5.3 g/dL
  gamma-GTP: 1.2 IU/L
300 mg/kg, 9 h, dose level Low
  TERMINAL_BW: 205.1 g
  APTT: 17.9 s
  Bas: 0.6%
  Eos: 1%
  Fbg: 262.6 mg/dL
  Hb: 13.5 g/dL
  Ht: 40.6%
  Lym: 71.8%
  MCH: 20.9 pg
  MCHC: 33.1%
  MCV: 63.2 fL
  Mono: 2%
  Neu: 24.4%
  PT: 14.9 s
  Plat: 116.7 x10_4/uL
  RBC: 642.8 x10_4/ul
  Ret: 7.8%
  WBC: 78.3 x10_2/uL
  KIDNEY_L: 0.9 g
  KIDNEY_R: 0.9 g
  KIDNEY_TOTAL: 1.8 g
  LIVER: 7.2 g
  A/G: 0.9
  ALP: 1734.8 IU/L
  ALT: 35 IU/L
  AST: 69.6 IU/L
  BUN: 13.4 mg/dL
  CRE: 0.2 mg/dL
  Ca: 10.9 mg/dL
  Cl: 108 meq/L
  GLC: 149 mg/dL
  IP: 11 mg/dL
  K: 3.8 meq/L
  LDH: 60.6 IU/L
  Na: 146 meq/L
  PL: 121.6 mg/dL
  RALB: 2.6 g/dL
  TC: 59.4 mg/dL
  TG: 39.8 mg/dL
  TP: 5.5 g/dL
  gamma-GTP: 1.2 IU/L
[5]
  TERMINAL_BW: 218.8 g
  APTT: 17.6 s
  Bas: 0.6%
  Eos: 0.6%
  Fbg: 269.2 mg/dL
  Hb: 13.3 g/dL
  Ht: 40.1%
  Lym: 80.6%
  MCH: 20.9 pg
  MCHC: 33.1%
  MCV: 63.2 fL
  Mono: 2.6%
  Neu: 15%
  PT: 14.4 s
  Plat: 121.2 x10_4/uL
  RBC: 634.4 x10_4/ul
  Ret: 7.4%
  WBC: 115.6 x10_2/uL
  KIDNEY_L: 1 g
  KIDNEY_R: 1 g
  KIDNEY_TOTAL: 2 g
  LIVER: 10.2 g
  A/G: 0.9
  ALP: 1785.8 IU/L
  ALT: 38.6 IU/L
  AST: 71.2 IU/L
  BUN: 14 mg/dL
  CRE: 0.2 mg/dL
  Ca: 11.2 mg/dL
  Cl: 105.6 meq/L
  GLC: 173.4 mg/dL
  IP: 6.9 mg/dL
  K: 4 meq/L
  LDH: 130.6 IU/L
  Na: 144.2 meq/L
  PL: 143.2 mg/dL
  RALB: 2.6 g/dL
